One compound from patent publication US20180228861A1, “COMPOSITION FOR TREATING DIABETES AND DYSLIPIDEMIA OBTAINED FROM THE EXTRACT OF COSTUS PICTUS D.DON PLANT AND A METHOD OF PREPARING THE SAME” (ARJUNA NATURAL EXTRACTS, LTD., priority 2012, published 2018) can be followed below.

Assay [1] relates to streptozotocin-induced Type 1 diabetic model in Wistar rats. Kind of assay: Muscle and liver glycogen in streptozotocin-induced diabetic rats. The class given is in vivo. Particulars: extracts 40 mg/kg orally, glibenclamide 3 mg/kg orally. The method, then: (§1) The study was conducted in adult male Wistar rats weighing 200-250 gm for a period of 40 days (30 days of treatment and 10 days of induction). The animals were randomly divided into seven groups comprising six each. Diabetes was induced in all the groups except the normal control group by the intra peritoneal administration of streptozotocin at 50 mg/kg. […] The effect of the different fractions was assessed by measuring the fasting blood glucose level, post prandial blood glucose level, serum insulin levels and glycosylated Hb. The anti hyperlipidemic effect was assessed by the estimation of total cholesterol, triglyceride, LDL cholesterol, HDL cholesterol, VLDL, muscle glycogen and liver glycogen. The antioxidant effects of the different extracts were assessed by the measuring TBARS, superoxide dismutase (SOD), catalase, reduced glutathione (GSH) and glutathione peroxidase levels (GPx). TBARS was determined by TBA assay (Ohkawa et al., 1979), SOD was measured using the nitroblue tetrazolium reduction method (Kakkar et al., 1984), Catalase was assayed using the method described by Aebi (1974). GPx was measured as described by Flohe and Gunzler (1984), GSH was measured as per the method of Jollow et al., (1974). Histopathological examination of pancreas was conducted to assess the antidiabetic effect of the different fractions of Costus pictus D. Don.

The test system is the same in assay [2]. The assay is described as follows: Insulin and glycosylated Hb levels in streptozotocin-induced diabetic rats. The class given is in vivo. The following applies: extracts 40 mg/kg orally, glibenclamide 3 mg/kg orally. The method, then:
as §1

Another assay concerns isolated mouse islets. The assay is described as follows: In vitro insulin secretogogue effect using isolated mouse islets. The class given is cell-based, mice (Swiss albino strain). The following applies: 10 nM. The source says:
In vitro insulin secretogogue effect of the different fractions of Costus pictus D. Don using isolated mouse islets.
Four to six weeks old male mice (Swiss albino strain; weighing 25±2 g) used for the study were maintained in the optimum environmental conditions.
Pancreata isolated from animals which were euthanized with CO2 anesthesia according the method of Shewadae et al., (1999) was removed aspectically. Washed thrice with Hank's Balanced Salt Solution (HBSS) and were subjected to collagenase digestion at 37° C. The pancreata was incubated in the dissociation medium (Dulbecco's modified minimum essential medium (DMEM) supplemented with collagenase, Soybean Trypsin Inhibitor and Bovine Serum Albumin fraction V) for 10 minutes. The procedure was repeated thrice and the dissociation was stopped by addition of chilled DMEM with 10% fetal bovine serum to the pancreatic digest. The mixture was centrifuged at 200×g for 10 minutes and the supernatant was discarded. After two washings with DMEM, the pellet was seeded in culture flasks containing DMEM pH-7.2 supplemented with 10% fetal bovine serum. The flasks were incubated at 37° C. in a CO2 incubator.
The viability of the islets was checked by Trypan blue dye exclusion test (Warburton and James, 1995) and this estimate had shown >98% of the cells were viable. […]

In assay [1], `COc1ccc(Cl)cc1C(=O)NCCc1ccc(S(=O)(=O)NC(=O)NC2CCCCC2)cc1` [glibenclamide] showed a Liver glycogen of 46 mg/g tissue and a Muscle glycogen of 8 mg/g tissue. In addition, in assay [2], the “Glycosylated Hb” value was found to be 0.5 % total Hb and the Insulin level amounted to 13 μU/ml. Besides, the “Thirty minutes Concentration of insulin” value with isolated mouse islets (thirty minutes) came to 3.77 ng/mL. Besides, the “Zero minutes Concentration of insulin” value with isolated mouse islets (zero minutes) was 0.97 ng/mL.
